Measurements published in ChEMBL document CHEMBL5505970 (J Med Chem, 2024).
Each block holds one compound with its values, some of them ahead of it. Calls of active or inactive are those of the source. The rule behind the calls is not given here.

Columns and labels:
[1] = target: T1, Serine/threonine-protein kinase ATR (Homo sapiens, UniProt Q13535); assay: Inhibition of ATR in human HeLa S3 cells assessed as decrease in CHK1 phosphorylation at Ser345 residue pretreated for 20 mins followed by gemcitabine stimulation for 3.5 to 4 hrs by AlphaScreen SurFire assay; type: cell-based
T1 sequence (Q13535 whole entry): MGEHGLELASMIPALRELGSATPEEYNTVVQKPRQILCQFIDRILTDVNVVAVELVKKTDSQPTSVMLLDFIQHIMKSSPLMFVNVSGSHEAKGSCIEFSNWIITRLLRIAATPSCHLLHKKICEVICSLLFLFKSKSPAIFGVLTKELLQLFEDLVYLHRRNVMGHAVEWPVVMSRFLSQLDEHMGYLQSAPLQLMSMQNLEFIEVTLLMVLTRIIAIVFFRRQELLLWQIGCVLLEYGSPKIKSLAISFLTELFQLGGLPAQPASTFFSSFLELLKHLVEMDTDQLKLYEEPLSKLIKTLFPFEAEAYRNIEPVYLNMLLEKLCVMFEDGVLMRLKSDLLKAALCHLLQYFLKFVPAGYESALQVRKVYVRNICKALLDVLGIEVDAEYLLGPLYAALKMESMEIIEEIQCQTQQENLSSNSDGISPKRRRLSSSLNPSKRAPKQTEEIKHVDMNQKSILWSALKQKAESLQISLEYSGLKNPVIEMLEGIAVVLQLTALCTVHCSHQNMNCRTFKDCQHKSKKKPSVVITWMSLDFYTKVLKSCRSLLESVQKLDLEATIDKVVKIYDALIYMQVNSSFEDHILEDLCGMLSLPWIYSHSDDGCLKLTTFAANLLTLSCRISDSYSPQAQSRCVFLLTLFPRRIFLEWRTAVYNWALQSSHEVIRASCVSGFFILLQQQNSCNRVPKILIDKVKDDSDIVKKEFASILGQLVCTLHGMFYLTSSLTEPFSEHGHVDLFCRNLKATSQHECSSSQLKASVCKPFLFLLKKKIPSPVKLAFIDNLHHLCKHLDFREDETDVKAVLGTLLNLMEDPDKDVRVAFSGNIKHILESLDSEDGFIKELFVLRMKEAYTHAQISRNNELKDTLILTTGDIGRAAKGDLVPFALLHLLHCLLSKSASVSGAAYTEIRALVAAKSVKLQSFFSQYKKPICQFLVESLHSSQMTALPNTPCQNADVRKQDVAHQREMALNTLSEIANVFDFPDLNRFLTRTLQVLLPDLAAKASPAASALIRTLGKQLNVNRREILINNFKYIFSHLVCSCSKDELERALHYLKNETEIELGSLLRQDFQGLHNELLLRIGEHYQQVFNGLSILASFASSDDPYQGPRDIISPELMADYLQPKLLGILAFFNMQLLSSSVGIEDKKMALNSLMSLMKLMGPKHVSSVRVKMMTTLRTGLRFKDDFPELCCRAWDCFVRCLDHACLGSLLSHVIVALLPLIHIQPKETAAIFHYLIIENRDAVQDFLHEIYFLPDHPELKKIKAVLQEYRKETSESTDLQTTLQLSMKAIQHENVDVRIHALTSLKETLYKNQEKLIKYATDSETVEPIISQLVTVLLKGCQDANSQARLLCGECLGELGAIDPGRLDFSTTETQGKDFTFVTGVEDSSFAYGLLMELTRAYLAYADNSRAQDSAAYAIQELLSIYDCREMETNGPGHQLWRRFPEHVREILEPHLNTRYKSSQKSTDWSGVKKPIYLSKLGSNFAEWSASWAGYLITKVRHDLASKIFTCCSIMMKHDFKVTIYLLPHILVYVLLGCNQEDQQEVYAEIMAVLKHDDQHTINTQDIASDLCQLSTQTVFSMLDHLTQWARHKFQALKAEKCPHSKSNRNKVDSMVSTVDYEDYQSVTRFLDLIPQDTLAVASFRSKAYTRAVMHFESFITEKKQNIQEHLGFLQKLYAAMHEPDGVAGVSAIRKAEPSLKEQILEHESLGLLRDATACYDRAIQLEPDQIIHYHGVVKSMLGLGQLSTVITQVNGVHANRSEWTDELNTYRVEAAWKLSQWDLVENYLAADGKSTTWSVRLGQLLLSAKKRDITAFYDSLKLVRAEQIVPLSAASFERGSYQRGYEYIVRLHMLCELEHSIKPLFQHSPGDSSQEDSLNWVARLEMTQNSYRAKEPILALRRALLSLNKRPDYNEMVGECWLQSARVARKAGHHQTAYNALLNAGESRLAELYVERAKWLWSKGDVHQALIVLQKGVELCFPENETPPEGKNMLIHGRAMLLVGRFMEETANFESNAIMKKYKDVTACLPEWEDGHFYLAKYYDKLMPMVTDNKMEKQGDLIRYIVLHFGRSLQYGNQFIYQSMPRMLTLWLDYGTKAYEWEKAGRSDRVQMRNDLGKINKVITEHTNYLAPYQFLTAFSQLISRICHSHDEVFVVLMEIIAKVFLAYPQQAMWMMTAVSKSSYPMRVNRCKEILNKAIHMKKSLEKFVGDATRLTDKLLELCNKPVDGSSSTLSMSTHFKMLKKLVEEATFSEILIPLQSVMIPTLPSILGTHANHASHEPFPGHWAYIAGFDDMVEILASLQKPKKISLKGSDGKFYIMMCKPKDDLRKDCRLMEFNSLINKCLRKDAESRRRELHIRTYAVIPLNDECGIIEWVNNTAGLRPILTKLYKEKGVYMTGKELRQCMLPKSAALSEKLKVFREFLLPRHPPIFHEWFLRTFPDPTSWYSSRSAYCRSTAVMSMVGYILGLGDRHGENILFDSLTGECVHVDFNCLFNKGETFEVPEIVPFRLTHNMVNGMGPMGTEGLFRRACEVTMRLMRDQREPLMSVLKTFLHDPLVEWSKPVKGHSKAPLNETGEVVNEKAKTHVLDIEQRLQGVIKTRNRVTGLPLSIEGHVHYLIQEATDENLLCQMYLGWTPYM

[2] = Clearance in human liver microsomes at 1 uM in presence of NADPH by ESI/LC-MS/MS analysis; type: ADME, Microsome; conditions: read-out: CLH
ATR/ATRIP = ATR/ATRIP (Homo sapiens, UniProt Q13535); assay: Inhibition of human ATR/ATRIP using GST-tagged p53 as substrate in presence of 3 uM ATP by AlphaScreen assay; type: protein-complex assay
Chain of ATR/ATRIP (Q13535 whole entry): as above
Chain of ATR/ATRIP (Q8WXE1 whole entry, further chain): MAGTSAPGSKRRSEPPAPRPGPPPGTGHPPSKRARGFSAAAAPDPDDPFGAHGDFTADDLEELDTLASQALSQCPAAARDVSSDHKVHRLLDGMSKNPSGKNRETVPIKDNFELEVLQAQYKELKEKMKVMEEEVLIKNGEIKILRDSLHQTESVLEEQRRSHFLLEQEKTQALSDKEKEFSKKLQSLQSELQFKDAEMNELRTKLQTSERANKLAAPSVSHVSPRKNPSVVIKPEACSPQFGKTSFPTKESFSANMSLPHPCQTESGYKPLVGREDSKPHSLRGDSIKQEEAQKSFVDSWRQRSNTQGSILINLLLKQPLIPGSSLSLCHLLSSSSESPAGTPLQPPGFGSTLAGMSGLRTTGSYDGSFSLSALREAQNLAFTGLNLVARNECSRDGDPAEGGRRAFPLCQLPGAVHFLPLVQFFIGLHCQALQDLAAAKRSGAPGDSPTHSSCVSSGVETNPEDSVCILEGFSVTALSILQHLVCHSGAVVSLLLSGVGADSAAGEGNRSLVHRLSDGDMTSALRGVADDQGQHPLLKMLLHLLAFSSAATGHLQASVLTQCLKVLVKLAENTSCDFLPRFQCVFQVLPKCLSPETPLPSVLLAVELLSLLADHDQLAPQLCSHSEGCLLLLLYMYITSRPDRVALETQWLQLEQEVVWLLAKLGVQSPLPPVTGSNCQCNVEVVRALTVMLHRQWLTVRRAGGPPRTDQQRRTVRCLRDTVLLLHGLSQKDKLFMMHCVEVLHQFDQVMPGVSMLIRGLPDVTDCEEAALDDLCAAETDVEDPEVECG

[3] = Inhibition of human full length recombinant ATR M211T mutant using GST-c-Myc-p53 as substrate measured after 30 mins in presence of Mg/ATP mix by ELISA
LoVo = assay: Cytotoxicity against human LoVo cells assessed as reduction in cell viability incubated for 5 days by CellTiter-Glo assay; type: functional, cell-based; conditions: 120 h
Granta-519 = assay: Antitumor activity against human Granta-519 cells xenografted in NOD-SCID mouse assessed as decrease in tumor volume at 50 mg/kg, po bid for 3 days and measured at 4 days after drug treatment cessation; type: functional, organism-based; conditions: time 3.0 day
[4] = Toxicity in NOD-SCID mouse xenografted with human Granta-519 cells assessed as reduction in red blood cells at 50 mg/kg, po bid for 3 days and 4 days off treatment and measured on day 14; type: organism-based; conditions: in vivo, 72 h, time 3 day
[5] = Toxicity in NOD-SCID mouse xenografted with human Granta-519 cells assessed as early stage erythroblasts at 30 mg/kg, po bid for 3 days and measured at 4 days after treatment discontinuation by flow cytometry; type: organism-based; conditions: in vivo, 72 h, time 3 day
[6] = Toxicity in NOD-SCID mouse xenografted with human Granta-519 cells assessed as late stage erythroblasts at 30 mg/kg, po bid for 3 days and measured at 4 days after treatment discontinuation by flow cytometry; type: organism-based; conditions: in vivo, 72 h, time 3 day
[7] = Oral bioavailability in Sprague-Dawley rat at 2.5 to 5 mg/kg formulated as a solution in 5% NMP:95% (10% VitE TPGS in water) measured for 24 hrs by reverse phase liquid chromatography coupled to mass spectrometry; type: ADME, organism-based; conditions: in vivo, dose 2.5-5 mg/kg
[8] = Clearance in Sprague-Dawley rat at 1 mg/kg, iv formulated as a solution in 10% PG:18% PEG400 in water or 5% NMP:95% (10% VitE TPGS in water) measured for 24 hrs by reverse phase liquid chromatography coupled to mass spectrometry; type: ADME, organism-based; conditions: in vivo
[9] = target: T1, Serine/threonine-protein kinase ATR; assay: Inhibition of ATR (unknown origin) by Morrison equation based analysis
Homo sapiens [10] = organism: Homo sapiens; assay: Selectivity ratio of IC50 for inhibition of mTOR in human HeLa S3 cells to IC50 for inhibition of ATR in human HeLa S3 cells; type: cell-based; conditions: time 1.0 hrs
[11] = target: Dual specificity tyrosine-phosphorylation-regulated kinase 1A (Homo sapiens) (UniProt Q13627); assay: Inhibition of DYRK1A in human Jurkat cell lysates at 0.03 to 0.3 uM in presence of biotinylated ADP by KiNativ profiling based mass spectrometry; type: subcellular; conditions: dose 0.03-0.3 µM
[12] = target: Glycogen synthase kinase-3 alpha (Homo sapiens) (UniProt P49840); assay: Inhibition of GSK3A in human Jurkat cell lysates at 0.03 to 0.3 uM in presence of biotinylated ADP by KiNativ profiling based mass spectrometry; type: subcellular; conditions: dose 0.03-0.3 µM
Chain of Glycogen synthase kinase-3 alpha (Homo sapiens) (P49840 2-483 limits assumed): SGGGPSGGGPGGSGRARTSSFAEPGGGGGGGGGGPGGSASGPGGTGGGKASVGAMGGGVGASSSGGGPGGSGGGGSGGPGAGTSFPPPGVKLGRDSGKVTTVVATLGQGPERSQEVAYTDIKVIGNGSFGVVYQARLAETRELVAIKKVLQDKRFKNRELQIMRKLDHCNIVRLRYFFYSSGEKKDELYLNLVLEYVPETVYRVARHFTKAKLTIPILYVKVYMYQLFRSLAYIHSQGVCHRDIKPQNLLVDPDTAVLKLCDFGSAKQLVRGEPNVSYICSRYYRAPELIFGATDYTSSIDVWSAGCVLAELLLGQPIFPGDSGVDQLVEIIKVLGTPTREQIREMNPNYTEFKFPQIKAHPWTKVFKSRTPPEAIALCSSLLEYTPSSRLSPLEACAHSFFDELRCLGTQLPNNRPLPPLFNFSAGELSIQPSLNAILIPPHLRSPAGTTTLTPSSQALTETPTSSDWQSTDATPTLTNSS

[13] = target: Glycogen synthase kinase-3 beta (Homo sapiens) (UniProt P49841); assay: Inhibition of GSK3B in human Jurkat cell lysates at 0.03 to 0.3 uM in presence of biotinylated ADP by KiNativ profiling based mass spectrometry; type: subcellular; conditions: dose 0.03-0.3 µM
Chain of Glycogen synthase kinase-3 beta (Homo sapiens) (P49841 whole entry, looked up): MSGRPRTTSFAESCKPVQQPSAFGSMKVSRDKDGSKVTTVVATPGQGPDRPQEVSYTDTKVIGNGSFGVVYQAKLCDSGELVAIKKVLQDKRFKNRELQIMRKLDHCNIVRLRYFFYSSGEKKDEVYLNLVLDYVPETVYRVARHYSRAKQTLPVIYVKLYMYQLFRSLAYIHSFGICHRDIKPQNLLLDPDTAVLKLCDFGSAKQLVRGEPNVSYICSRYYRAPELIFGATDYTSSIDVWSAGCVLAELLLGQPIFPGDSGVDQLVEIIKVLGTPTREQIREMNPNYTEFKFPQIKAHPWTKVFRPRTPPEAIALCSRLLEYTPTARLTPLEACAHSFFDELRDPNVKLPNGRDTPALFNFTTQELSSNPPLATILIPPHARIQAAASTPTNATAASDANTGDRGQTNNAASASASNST

[14] = target: T1, Serine/threonine-protein kinase ATR; assay: Inhibition of ATR in gemcitabine-stimulated human LoVo cells assessed as decrease in CHK1 phosphorylation at Ser345 residue; type: cell-based
Homo sapiens [15] = organism: Homo sapiens; assay: Selectivity ratio of IC50 for inhibition of mTOR in human LoVo cells using pP70S6K (Thr389) as substrate to IC50 for inhibition of ATR in gemcitabine-stimulated human LoVo cells using CHK1 (Ser345) as substrate; type: cell-based
[16] = Apparent permeability of the compound in human Caco-2 cells at 10 uM measured for 90 mins by LC-MS/MS analysis; type: ADME, cell-based
[17] = Efflux ratio of apparent permeability in human Caco-2 cells at 10 uM measured for 90 mins by LC-MS/MS analysis; type: ADME, cell-based
[18] = target: Serine-protein kinase ATM (Homo sapiens, UniProt Q13315); assay: Inhibition of human full length recombinant ATM using GST-c-Myc-p53 as substrate measured after 30 mins in presence of Mg/ATP mix by ELISA
[19] = target: DNA-dependent protein kinase catalytic subunit (Homo sapiens, UniProt P78527); assay: Inhibition of human full length recombinant DNA-PK using GST-c-Myc-p53 as substrate measured after 30 mins in presence of Mg/ATP mix by ELISA
[20] = target: Serine/threonine-protein kinase mTOR (Homo sapiens, UniProt P42345); assay: Inhibition of human full length recombinant mTOR measured after 40 mins in presence of [gamma-33P]ATP by radiometric scintillation counting analysis
[21] = Clearance in human hepatocytes at 1 uM measured per million cells by ESI/LC-MS/MS analysis; type: ADME, cell-based, Hepatocyte; conditions: read-out: CLH

IC50 [1]: 9 nM
Structure (SMILES): C[C@@H]1COCCN1c1cc(C(C)(C)C(N)=O)c2cnn(-c3cc[nH]n3)c2n1

IC50 [1]: 7 nM
microsomal CLint at 1 µM [2]: 23 µL/min/mg
Structure (SMILES): C[C@@H]1COCCN1c1cc(I)c2cnn(-c3ccn[nH]3)c2n1

IC50 (ATR/ATRIP): > 700 nM
IC50 [1]: > 10000 nM
Structure (SMILES): C[C@@H]1COCCN1c1cc(C2(S(C)(=O)=O)CC2)nc(Cc2cc[nH]n2)n1

IC50 [3]: 134 nM
Structure (SMILES): C[C@@H]1COCCN1c1cc(C2([S@](C)(=N)=O)CC2)nc(-c2cc[nH]c3nccc2-3)n1 [CERALASERTIB]
IC50 (LoVo): 377 nM

IC50 [1]: 21 nM
Structure (SMILES): C[C@@H]1COCCN1c1cc(C(C)(C)O)c2cnn(-c3cc[nH]n3)c2n1

Structure (SMILES): C[C@@H]1COCCN1c1cc(-c2ccnn2C)c2ccnc(-c3ccn[nH]3)c2n1 [ELIMUSERTIB]
IC50 (LoVo): 27 nM
Activity (Granta-519): Active
Activity [4]: Toxic
Activity [5]: Non-Toxic
Activity [6]: Non-Toxic

IC50 (ATR/ATRIP): > 1000 nM
Structure (SMILES): C[C@@H]1COCCN1c1cc(C2(S(C)(=O)=O)CC2)nc(N(C)c2cc[nH]n2)n1

IC50 (ATR/ATRIP): > 1000 nM
IC50 [1]: > 10000 nM
Structure (SMILES): Cc1c[nH]nc1Nc1nc(N2CCOC[C@H]2C)cc(C2(S(C)(=O)=O)CC2)n1

microsomal CLint at 1 µM [2]: < 11.6 µL/min/mg
bioavailability [7]: 2%
clearance [8]: 45 mL/min/kg
Structure (SMILES): C[C@@H]1COCCN1c1cc(-c2ccccc2C(N)=O)c2cnn(-c3ccn[nH]3)c2n1

IC50 [3]: 10 nM
Structure (SMILES): C[C@@H]1COCCN1c1cc(C2(S(C)(=O)=O)CC2)nc(-c2cccc3[nH]ccc23)n1

IC50 (ATR/ATRIP): 160 nM
Ki [9]: 2.9 nM
IC50 [1]: 5 nM
inhibition [11]: Active
inhibition [12]: Active
inhibition [13]: Active
IC50 [14]: 1.1 nM
Structure (SMILES): Nc1nn2cc(F)cnc2c1C(=O)Nc1cncc(F)c1N1CCC(C(=O)N2CCN(C3COC3)CC2)CC1 [M4344]
Ratio IC50 (Homo sapiens [10]): 27
Ratio IC50 (Homo sapiens [15]): 63

Structure (SMILES): C[C@@H]1COCCN1c1cc(I)c2cnn(-c3cc[nH]n3)c2n1
Ratio IC50 (Homo sapiens [10]): 1.6

IC50 [1]: 60 nM
Structure (SMILES): C[C@@H]1COCCN1c1ccc2cnn(-c3cc[nH]n3)c2n1
Ratio IC50 (Homo sapiens [10]): 4

IC50 [1]: 0.8 nM
microsomal CLint at 1 µM [2]: < 11.6 µL/min/mg
Papp at […], 10 µM [16]: 17 ×10⁻⁶ cm/s
efflux ratio at […], 10 µM [17]: 0.9
bioavailability [7]: 56%
clearance [8]: 15 mL/min/kg
Structure (SMILES): C[C@@H]1COCCN1c1cc(C(C)(C)C#N)c2cnn(-c3cc[nH]n3)c2n1
Ratio IC50 (Homo sapiens [10]): 6.6

microsomal CLint at 1 µM [2]: < 11.6 µL/min/mg
Structure (SMILES): C[C@@H]1COCCN1c1cc(C2(O)CCC(F)(F)CC2)c2cnn(-c3cc[nH]n3)c2n1

IC50 (ATR/ATRIP): > 1000 nM
Structure (SMILES): Cc1cc2c(C3(S(C)(=O)=O)CC3)cc(N3CCOC[C@H]3C)nc2n1-c1cc[nH]n1

IC50 [3]: 5 nM
IC50 [18]: 85 nM
IC50 [19]: 3600 nM
IC50 [20]: 4800 nM
Structure (SMILES): CNCc1ccc(-c2cc(-c3nc(-c4ccc(S(=O)(=O)C(C)C)cc4)cnc3N)on2)cc1 [BERZOSERTIB]

hepatocyte CLint at 1 µM [21]: < 2.9 µL/min/1e6 cells
microsomal CLint at 1 µM [2]: < 11.8 µL/min/mg
Structure (SMILES): C[C@@H]1COCCN1c1cc(C2(S(C)(=O)=O)CC2)c2ccn(-c3cc[nH]n3)c2n1

IC50 [1]: > 10000 nM
Structure (SMILES): C[C@@H]1COCCN1c1cc(C2(S(C)(=O)=O)CC2)nc(Nc2cn[nH]c2)n1

IC50 (ATR/ATRIP): 160 nM
IC50 [1]: > 10000 nM
Structure (SMILES): C[C@@H]1COCCN1c1cc(C2(S(C)(=O)=O)CC2)nc(S(=O)(=O)c2cc[nH]n2)n1
